Test results: patent US11690810B2, “Combination treatment of bacterial infection” (The Chinese University of Hong Kong, priority 2018, dated 2023)
Where two headings read alike, the source gives them in different places.

What was measured:
Experiment in all cases: MIC and checkerboard (FIC) assay
[1] = tested on: S. aureus SA-RN4220-pUL5054 (RN4220); conditions: Staphylococcus aureus
[2] = tested on: CA-MRSA strain ST30; type: cell-based, Staphylococcus aureus; conditions: Staphylococcus aureus, MRSA
[3] = tested on: MRSA SA-ST239; conditions: for MIC: Staphylococcus aureus, MRSA; for FIC / MIC combine: ST239
[4] = tested on: S. aureus SA-1199B (NorA efflux pump overexpressed); conditions: Staphylococcus aureus, read-out: Minimum inhibitory concentration to compound (MIC), 1199B′; Table 8
[5] = tested on: S. aureus SA-APH2″-AAC6′ (APH2), resistant to gentamicin; conditions: for MIC: Staphylococcus aureus
[6] = tested on: S. aureus SA-APH3′ (APH3), resistant to kanamycin; conditions: Staphylococcus aureus, read-out: Minimum inhibitory concentration to compound (MIC)
[7] = tested on: S. aureus SA-ANT4′ (ANT4), resistant to fusidic acid; conditions: Staphylococcus aureus, read-out: Minimum inhibitory concentration to compound (MIC)
[8] = tested on: HA MRSA W238
[9] = tested on: HA MRSA W231
[10] = tested on: HA MRSA W233
[11] = read-out: Activity (MIC, μg/ml)
[12] = read-out: Minimum inhibitory concentration to compound (MIC)
[13] = ST30, Table 8, read-out: Minimum inhibitory concentration to compound (MIC)
[14] = ST30, read-out: Activity (MIC, μg/ml)
[15] = APH2″-AAC6′, ECG with WQD-169 (Kuraridin)

| Molecule | MIC [1, 11] [µg/mL] | MIC [2, 11] [µg/mL] | MIC [3, 11] [µg/mL] | MIC [4] [µg/mL] | MIC [5, 12] [µg/mL] | MIC [1, 12] [µg/mL] | MIC [2, 13] [µg/mL] | MIC [2, 14] [µg/mL] | MIC [6] [µg/mL] | MIC ([3]; read-out: MIC alone) [µg/mL] | MIC [7] [µg/mL] | also measured |
| --- | --- | --- | --- | --- | --- | --- | --- | --- | --- | --- | --- | --- |
| C=C(C)C(CC=C(C)C)Cc1c(OC)cc(OC)c(C(=O)/C=C/c2ccc(OCc3ccccc3)cc2OCc2ccccc2)c1OC (stereo not shown) [WQD-8] | > 256 | > 256 | > 256 |  |  |  |  |  |  |  |  |  |
| C=C(C)C(CC=C(C)C)Cc1c(OC)cc(OC)c(C(=O)/C=C/c2ccccc2O)c1OC (stereo not shown) [WQD-98] | > 256 | > 256 | > 256 |  |  |  |  |  |  |  |  |  |
| C=C(C)C(CC=C(C)C)Cc1c(OC)cc(OC)c(C(=O)/C=C/c2ccc(O)cc2)c1OC (stereo not shown) [WQD-101] | > 256 | > 256 | > 256 |  |  |  |  |  |  |  |  |  |
| C=C(C)C(CC=C(C)C)Cc1c(O)cc(OC)c(C(=O)/C=C/c2ccccc2O)c1O (stereo not shown) [WQD-165] |  |  | 4 | 8 | 4 | 8 | 32 | 32 | 4 | 4 | 8 | FIC ([5]; APH2″-AAC6′, ECG with WQD-165): 1; MIC combine ([5]; APH2″-AAC6′, ECG with WQD-165): 4 µg/mL; MIC ([5]; read-out: MIC alone): 4 µg/mL; FIC ([3]; ECG with WQD-165): 1; MIC combine ([3]; ECG with WQD-165): 4 µg/mL |
| C=C(C)C(CC=C(C)C)Cc1c(O)cc(OC)c(C(=O)/C=C/c2ccc(O)cc2O)c1O (stereo not shown) [WQD-169, (E)-1-(2,4-dihydroxy-6-methoxy-3-(5-methyl-2-(prop-1-en-2-yl)hex-4-en-1-yl)phenyl)-3-(2,4-dihydroxyphenyl)prop-2-en-1-one] |  |  | 8 | 8 | 8 | 8 | 8 | 8 | 8 | 8 | 8 | FIC [5, 15]: 0.25; MIC combine [5, 15]: 2 µg/mL; MIC alone ([5]; Strain APH2″-AAC6′, Table 9): 8 µg/mL; FIC ([3]; ECG with WQD-169 (Kuraridin)): 0.5; MIC combine ([3]; ECG with WQD-169 (Kuraridin)): 4 µg/mL |
| C=C(C)C(CC=C(C)C)Cc1c(O)cc(OC)c(C(=O)/C=C/c2ccc(O)cc2)c1O (stereo not shown) [WQD-175] |  |  | 4 | 8 | 4 | 8 | 16 | 16 | 4 | 4 | 8 | FIC ([5]; APH2″-AAC6′, ECG with WQD-175): 1; MIC combine ([5]; APH2″-AAC6′, ECG with WQD-175): 4 µg/mL; MIC ([5]; read-out: MIC alone): 4 µg/mL; FIC ([3]; ECG with WQD-175): 1; MIC combine ([3]; ECG with WQD-175): 4 µg/mL |
| gentamicin [reference compound] |  |  |  |  |  |  |  |  |  |  |  | MIC alone ([5]; APH2 (gentamicin resistant)): > 512 µg/mL; MIC alone ([5]; APH2 (gentamicin resistant), listed as Gen): 512 µg/mL; FIC ([5]; APH2, ECG+Kur+Gen): 0.0312; MIC combine ([5]; APH2, ECG+Kur+Gen): 16 µg/mL; MIC alone ([8]; W238 (gentamicin resistant)): 512 µg/mL; FIC ([8]; W238, ECG+Kur+Gen): 0.03; MIC combine ([8]; W238, ECG+Kur+Gen): 16 µg/mL; MIC alone ([9]; W231 (gentamicin resistant)): 64 µg/mL; FIC ([9]; W231, ECG+Kur+Gen): 0.015; MIC combine ([9]; W231, ECG+Kur+Gen): 1 µg/mL; MIC alone ([10]; W233 (gentamicin resistant)): 512 µg/mL; FIC ([10]; W233, ECG+Kur+Gen): 0.03; MIC combine ([10]; W233, ECG+Kur+Gen): 16 µg/mL |
